Measured values reported in patent publication US10966978B2, “Dose and regimen for HDM2-p53 interaction inhibitors” (Novartis AG, priority 2016, dated 2021).
Read-outs that look alike come from different tables or passages of the source.

Tested on: patients with advanced TP53 wild-type (WT) leukemias

COc1ncc(-c2nc3c(n2C(C)C)[C@H](c2ccc(Cl)cc2)N(c2cc(Cl)cn(C)c2=O)C3=O)c(OC)n1 [HDM201, (S)-5-(5-Chloro-1-methyl-2-oxo-1,2-dihydro-pyridin-3-yl)-6-(4-chloro-phenyl)-2-(2,4-dimethoxy-pyrimidin-5-yl)-1-isopropyl-5,6-dihydro-1H-pyrrolo[3,4-d]imidazol-4-one]
2 (12.5) n (%): AE: Gamma-Glutamyltransferase Increased (Regimen 1A N = 16, All Grades) | AE: General Physical Health Deterioration (Regimen 1A N = 16, All Grades) | AE: Gingival Bleeding (Regimen 1A N = 16, All Grades) | AE: Hyperuricaemia (Regimen 1A N = 16, All Grades) | AE: Hypocalcaemia (Regimen 1A N = 16, All Grades) | AE: Hypophosphataemia (Regimen 1A N = 16, All Grades) | AE: Leukopenia (Regimen 1A N = 16, All Grades) | AE: Mouth Haemorrhage (Regimen 1A N = 16, All Grades) | AE: Hypophosphataemia (Regimen 1A N = 16, Grade 3/4)
3 (18.8) n (%): AE: Lipase Increased (Regimen 1A N = 16, All Grades) | AE: Pyrexia (Regimen 1A N = 16, All Grades)
15 (93.8) n (%): AE: Total (Regimen 1A N = 16, All Grades)
0 n (%): AE: Hyperkalaemia (Regimen 1A N = 16, All Grades) | AE: Hypokalaemia (Regimen 1A N = 16, All Grades) | AE: Infective Glossitis (Regimen 1A N = 16, All Grades) | AE: Macular Oedema (Regimen 1A N = 16, All Grades) | AE: Pancytopenia (Regimen 1A N = 16, All Grades) | AE: Rectal Haemorrhage (Regimen 1A N = 16, All Grades) | AE: Renal Failure (Regimen 1A N = 16, All Grades) | AE: Abdominal Discomfort (Regimen 1A N = 16, Grade 3/4) | AE: Abdominal Pain (Regimen 1A N = 16, Grade 3/4) | AE: Abdominal Pain Upper (Regimen 1A N = 16, Grade 3/4) | AE: Acute Kidney Injury (Regimen 1A N = 16, Grade 3/4) | AE: Amylase Increased (Regimen 1A N = 16, Grade 3/4) | AE: Arthralgia (Regimen 1A N = 16, Grade 3/4) | AE: Asthenia (Regimen 1A N = 16, Grade 3/4) | AE: Atrial Fibrillation (Regimen 1A N = 16, Grade 3/4) | AE: Atypical Pneumonia (Regimen 1A N = 16, Grade 3/4) | AE: Balanitis Candida (Regimen 1A N = 16, Grade 3/4) | AE: Blood Alkaline Phosphatase Increased (Regimen 1A N = 16, Grade 3/4) | AE: Blood Bilirubin Increased (Regimen 1A N = 16, Grade 3/4) | AE: Blood Creatinine Increased (Regimen 1A N = 16, Grade 3/4) | AE: Blood Phosphorus Increased (Regimen 1A N = 16, Grade 3/4) | AE: Bone Marrow Failure (Regimen 1A N = 16, Grade 3/4) | AE: C-Reactive Protein Increased (Regimen 1A N = 16, Grade 3/4) | AE: Cardiac Failure (Regimen 1A N = 16, Grade 3/4) | AE: Cellulitis (Regimen 1A N = 16, Grade 3/4) | AE: Conjunctival Haemorrhage (Regimen 1A N = 16, Grade 3/4) | AE: Constipation (Regimen 1A N = 16, Grade 3/4) | AE: Cough (Regimen 1A N = 16, Grade 3/4) | AE: Cystitis Viral (Regimen 1A N = 16, Grade 3/4) | AE: Cytomegalovirus Infection (Regimen 1A N = 16, Grade 3/4) | AE: Decreased Appetite (Regimen 1A N = 16, Grade 3/4) | AE: Diarrhoea (Regimen 1A N = 16, Grade 3/4) | AE: Dyspepsia (Regimen 1A N = 16, Grade 3/4) | AE: Epistaxis (Regimen 1A N = 16, Grade 3/4) | AE: Fatigue (Regimen 1A N = 16, Grade 3/4) | AE: General Physical Health Deterioration (Regimen 1A N = 16, Grade 3/4) | AE: Gingival Bleeding (Regimen 1A N = 16, Grade 3/4) | AE: Graft Versus Host Disease (Regimen 1A N = 16, Grade 3/4) | AE: Haemoglobin Decreased (Regimen 1A N = 16, Grade 3/4) | AE: Headache (Regimen 1A N = 16, Grade 3/4) | AE: Hyperbilirubinaemia (Regimen 1A N = 16, Grade 3/4) | AE: Hyperglycaemia (Regimen 1A N = 16, Grade 3/4) | AE: Hyperkalaemia (Regimen 1A N = 16, Grade 3/4) | AE: Hyperphosphataemia (Regimen 1A N = 16, Grade 3/4) | AE: Hypoalbuminaemia (Regimen 1A N = 16, Grade 3/4) | AE: Hypocalcaemia (Regimen 1A N = 16, Grade 3/4) | AE: Hypokalaemia (Regimen 1A N = 16, Grade 3/4) | AE: Hypomagnesaemia (Regimen 1A N = 16, Grade 3/4) | AE: Hyponatraemia (Regimen 1A N = 16, Grade 3/4) | AE: Hypotension (Regimen 1A N = 16, Grade 3/4) | AE: Infective Glossitis (Regimen 1A N = 16, Grade 3/4)
5 (31.3) n (%): AE: Vomiting (Regimen 1A N = 16, All Grades)
10 (62.5) n (%): AE: Nausea (Regimen 1A N = 16, All Grades)
7 (43.8) n (%): AE: Tumour Lysis Syndrome (Regimen 1A N = 16, All Grades)
8 (50.0) n (%): AE: Thrombocytopenia/Platelet Count Decreased (Regimen 1A N = 16, All Grades)
1 (6.3) n (%): AE: Graft Versus Host Disease (Regimen 1A N = 16, All Grades) | AE: Haemoglobin Decreased (Regimen 1A N = 16, All Grades) | AE: Headache (Regimen 1A N = 16, All Grades) | AE: Hyperbilirubinaemia (Regimen 1A N = 16, All Grades) | AE: Hyperglycaemia (Regimen 1A N = 16, All Grades) | AE: Hyperphosphataemia (Regimen 1A N = 16, All Grades) | AE: Hypoalbuminaemia (Regimen 1A N = 16, All Grades) | AE: Hypomagnesaemia (Regimen 1A N = 16, All Grades) | AE: Hyponatraemia (Regimen 1A N = 16, All Grades) | AE: Hypotension (Regimen 1A N = 16, All Grades) | AE: Infection (Regimen 1A N = 16, All Grades) | AE: Iron Overload (Regimen 1A N = 16, All Grades) | AE: Lip Oedema (Regimen 1A N = 16, All Grades) | AE: Malaise (Regimen 1A N = 16, All Grades) | AE: Oedema (Regimen 1A N = 16, All Grades) | AE: Oral Disorder (Regimen 1A N = 16, All Grades) | AE: Pain In Extremity (Regimen 1A N = 16, All Grades) | AE: Pneumonia (Regimen 1A N = 16, All Grades) | AE: Pollakiuria (Regimen 1A N = 16, All Grades) | AE: Rash (Regimen 1A N = 16, All Grades) | AE: Rash Erythematous (Regimen 1A N = 16, All Grades) | AE: Rash Papular (Regimen 1A N = 16, All Grades) | AE: Skin Exfoliation (Regimen 1A N = 16, All Grades) | AE: Stomatitis (Regimen 1A N = 16, All Grades) | AE: Subarachnoid Haemorrhage (Regimen 1A N = 16, All Grades) | AE: Weight Decreased (Regimen 1A N = 16, All Grades) | AE: White Blood Cell Count Decreased (Regimen 1A N = 16, All Grades) | AE: Blood Uric Acid Increased (Regimen 1A N = 16, Grade 3/4) | AE: Chronic Graft Versus Host Disease (Regimen 1A N = 16, Grade 3/4) | AE: Dyspnoea (Regimen 1A N = 16, Grade 3/4) | AE: Gamma-Glutamyltransferase Increased (Regimen 1A N = 16, Grade 3/4) | AE: Hyperuricaemia (Regimen 1A N = 16, Grade 3/4) | AE: Infection (Regimen 1A N = 16, Grade 3/4)
6 (37.5) n (%): AE: Neutropenia/Neutrophil Count Decreased (Regimen 1A N = 16, All Grades)
4 (25.0) n (%): AE: Fatigue (Regimen 1A N = 16, All Grades) | AE: Febrile Neutropenia (Regimen 1A N = 16, All Grades) | AE: Anaemia (Regimen 1A N = 16, Grade 3/4) | AE: Febrile Neutropenia (Regimen 1A N = 16, Grade 3/4)
